US10010494B2, “Methods for the treatment of hyperhidrosis” (priority 2005, dated 2018)

System: patient suffering from hyperhidrosis
Test: Oral sulpiride given to a patient suffering from hyperhidrosis
Assay type: in vivo, human
Details: 200 mg daily
Description: A dose of 200 mg Sulpiride was administered to a patient suffering from hyperhidrosis.

CCN1CCCC1CNC(=O)c1cc(S(N)(=O)=O)ccc1OC (stereo not drawn) [Sulpiride, N-[(1-ethylpyrrolidin-2-yl)methyl]-2-methoxy-5-sulfamoyl-benzamide]
duration of reduction in sweating: lasted for as long as the patient took a daily pill
effect on sweating: reduction in sweating
onset of reduction in sweating after beginning taking the drug: 72 h
